Reference: patent publication US10125358B2, “Methods and compounds for increasing threonyl-tRNA synthetase activity” (UNIVERSITY OF VERMONT AND STATE AGRICULTURAL COLLEGE, priority 2012, dated 2018)
Entries after “also recorded” stand apart in the source; their conditions may differ.

Tests used:
[1] = test system: HUVEC; experiment: Nascent protein synthesis assay (Click-iT metabolic labeling); format: cell-based, human; conditions: HUVECs; concentrations below 100 nM
Protocol: Nascent Protein Synthesis Assay—
Nascent protein synthesis was measured using Invitrogen Click-iT® metabolic labeling reagents [Dieterich, D. C., et al., Nat Protoc 2, 532-40 (2007)]. HUVEC cultures were pre-incubated in methionine-free Dulbecco's Modified Eagle Medium (D-MEM) high glucose (Invitrogen, Life Technologies, Grand Island, N.Y.) supplemented with 10% dialyzed fetal bovine serum (Invitrogen) containing the control or test compounds. Cycloheximide (50 μM) was used as a positive control. After 45 minutes, 25 μM Click-iT® AHA (L-azidohomoalanine) (Invitrogen) was added and cultures were incubated for 3 h. Cells were lysed with 1% SDS in 50 mM Tris-HCl with protease and phosphatase inhibitors: 1 mM […], 20 […], and 4 […]. Extracts were sonicated and protein concentration was determined by Bradford assay. Protein samples were labeled with biotin alkyne (PEG4 carboxamide-propargyl biotin) (Invitrogen) using the Click-iT® Protein Reaction Buffer Kit (Invitrogen) according to manufacturer's instructions. Equal concentrations of protein were run on a 10% SDS-PAGE and transferred to nitrocellulose membrane, incubated with streptavidin-HRP reagent (Pierce Thermo Scientific, Rockford, Ill.) followed by reaction with ECL reagent (Pierce) and exposed on film.

[2] = target: T1, TARS (Homo sapiens, UniProt P26639); conditions: calculated; see Williams, Mirando et al. 2013; cited from earlier work
T1 sequence (P26639 1-723): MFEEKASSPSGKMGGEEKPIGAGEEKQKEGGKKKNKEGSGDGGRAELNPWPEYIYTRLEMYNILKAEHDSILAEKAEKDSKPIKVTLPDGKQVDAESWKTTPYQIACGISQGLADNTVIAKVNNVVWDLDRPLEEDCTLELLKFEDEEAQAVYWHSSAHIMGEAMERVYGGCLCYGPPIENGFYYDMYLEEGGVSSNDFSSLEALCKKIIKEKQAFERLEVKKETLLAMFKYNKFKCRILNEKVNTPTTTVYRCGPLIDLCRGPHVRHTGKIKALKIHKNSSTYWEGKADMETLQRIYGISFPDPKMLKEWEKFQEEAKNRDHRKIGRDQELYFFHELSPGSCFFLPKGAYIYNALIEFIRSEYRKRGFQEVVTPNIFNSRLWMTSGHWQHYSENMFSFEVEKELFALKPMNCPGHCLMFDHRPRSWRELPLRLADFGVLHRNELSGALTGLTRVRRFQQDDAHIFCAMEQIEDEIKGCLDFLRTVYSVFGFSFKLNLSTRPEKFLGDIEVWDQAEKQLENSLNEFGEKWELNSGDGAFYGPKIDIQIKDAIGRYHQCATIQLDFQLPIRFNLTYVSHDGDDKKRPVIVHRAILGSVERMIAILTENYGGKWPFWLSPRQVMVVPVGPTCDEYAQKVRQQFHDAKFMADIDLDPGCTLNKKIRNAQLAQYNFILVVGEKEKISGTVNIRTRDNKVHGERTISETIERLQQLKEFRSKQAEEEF

[3] = test system: HUVECs; experiment: Cell viability by Trypan Blue exclusion; format: cell-based, human; conditions: concentrations below 100 nM
Protocol: Cell viability was measured by counting cells in a hemacytometer with Trypan Blue exclusion (Sigma-Aldrich, St. Louis, Mo.) according to manufacturer's instructions. Measurements were normalized to untreated cells.

[4] = test system: SKOV-3 cells; experiment: HIF-1α stabilization in hypoxia (Western blot); format: cell-based
Protocol: After treatments, cells were harvested into sample buffer containing: 0.2 M Tris-HCL, 4% SDS, 4% β-mercaptoethanol, 40% glycerol, 4 μM pyronin Y. Extracts were sheared through a 24-gauge syringe. Samples were separated by 10% SDS-PAGE and transferred to nitrocellulose membrane and probed with rabbit polyclonal anti-TARS (1:500; Santa Cruz Biotechnology, Dallas, Tex.) or monoclonal anti-HIF-1α (BD Transduction Laboratories, [BD Biosciences, San Jose, Calif.]) (Lounsbury, Beddow et al. 1994). Secondary antibodies were HRP-goat-anti-mouse and HRP-goat-anti-rabbit (1:5,000; Jackson Laboratories, Bar Harbor, Me.).

[5] = test system: HUVECs; experiment: Western blot for unfolded protein response (phospho-eIF2α) and apoptosis (cleaved caspase-3); format: cell-based, human; conditions: HUVECs in full serum media
Protocol: After treatments, cells were harvested into sample buffer containing: 0.2 M Tris-HCL, 4% SDS, 4% β-mercaptoethanol, 40% glycerol, 4 μM pyronin Y. Extracts were sheared through a 24-gauge syringe. Samples were separated by 10% SDS-PAGE and transferred to nitrocellulose membrane and probed with specific antibody as described (Lounsbury, Beddow et al. 1994). Primary antibodies are as follows: Rabbit monoclonal anti-P-eIF2α (1:1000; Cell Signaling Technology, Danvers, Mass.), rabbit monoclonal anti-Cleaved Caspase-3 (1:1000; Cell Signaling Technology, Danvers, Mass.), rabbit polyclonal anti-TARS (1:500; Santa Cruz Biotechnology, Santa Cruz, Calif.). Loading control antibodies were rabbit monoclonal anti-β-actin and anti-β-tubulin (1:1000; Cell Signaling Technology, Danvers, Mass.). Secondary antibodies were HRP-goat-anti-mouse and HRP-goat-anti-rabbit (1:5,000; Jackson Laboratories, Bar Harbor, Me.).

[6] = test system: HUVECs; experiment: VEGF secretion into culture media (ELISA); format: cell-based, human; conditions: purified recombinant TARS added to HUVEC media for 24 h
Protocol: ELISA and Lactate Dehydrogenase Assays—
Culture media supernatants were tested for levels of secreted TARS protein using the Threonyl tRNA Synthetase (TARS) ELISA Kit (USCN Life Science, Wuhan, Hubei, PRC) according to manufacturer's instructions. Cell membrane integrity was confirmed using the lactate dehydrogenase assay CytoTox-ONE™ Homogeneous Membrane Integrity Assay (Promega, Madison, Wis.) according to manufacturer's instructions and reported as percent cytotoxicity relative to a lysis control. Levels of secreted VEGF were measured using the Human VEGF ELISA kit (Thermo Scientific) per manufacturer's instructions.

[7] = test system: von Hippel Lindau protein (VHL); experiment: Co-immunoprecipitation of TARS and VHL from transfected HEK293 cells; format: binding, human; conditions: biotinylated TARS construct precipitated with streptavidin beads, HEK cells
Protocol: Plasmids expressing biotinylatable TARS (pTARS) and myc-tagged VHL (pVHL) were transfected into HEK293 cells, and then extracts were prepared. Biotin-TARS was precipitated using streptavidin-coupled beads. Myc-VHL was precipitated using anti-myc antibodies. Precipitates were separated by SDS-PAGE, transferred and blots probed with anti-TARS antibody or anti-myc (VHL) antibody.

Chain of von Hippel Lindau protein (VHL) (P40337 54-213 limits assumed): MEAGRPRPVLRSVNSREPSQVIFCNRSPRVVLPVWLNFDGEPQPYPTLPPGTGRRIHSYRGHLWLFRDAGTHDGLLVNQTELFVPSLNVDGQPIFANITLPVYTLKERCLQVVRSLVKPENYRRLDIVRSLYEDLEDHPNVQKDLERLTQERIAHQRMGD

C[C@@H]1C[C@H](C)C[C@H](C)[C@@H](O)CC(=O)O[C@H]([C@@H]2CC[C@H]2C(=O)O)C/C=C/C=C(/C#N)[C@H](O)[C@@H](C)C1 [BC194]
nascent protein synthesis [1]: unaffected; also recorded: lack of effect | Ki [2]: 4.1 nM | cell viability [3]: unaffected; also recorded: lack of effect | HIF-1α transcription ([4]; SK-OV3 cells responding to hypoxia): no change in HIF-1α transcription | HIF-1α protein stabilization ([4]; hypoxia (2% O2), 6 h): diminished the levels of HIF-1α protein stabilization; also recorded: reduce HIF-1α stabilization | stimulation of unfolded protein response (phospho-eIF2α) and apoptosis (cleaved caspase-3) [5]: high concentrations of BC194 are required

B1: TARS: N-terminal His6-tagged human threonyl-tRNA synthetase expressed and purified from E. coli; SEQ ID NO:2 (protein, listed as Homo sapiens)
chain: MFEEKASSPSGKMGGEEKPIGAGEEKQKEGGKKKNKEGSGDGGRAELNPWPEYIYTRLEMYNILKAEHDSILAEKAEKDSKPIKVTLPDGKQVDAESWKTTPYQIACGISQGLADNTVIAKVNNVVWDLDRPLEEDCTLELLKFEDEEAQAVYWHSSAHIMGEAMERVYGGCLCYGPPIENGFYYDMYLEEGGVSSNDFSSLEALCKKIIKEKQAFERLEVKKETLLAMFKYNKFKCRILNEKVNTPTTTVYRCGPLIDLCRGPHVRHTGKIKALKIHKNSSTYWEGKADMETLQRIYGISFPDPKMLKEWEKFQEEAKNRDHRKIGRDQELYFFHELSPGSCFFLPKGAYIYNALIEFIRSEYRKRGFQEVVTPNIFNSRLWMTSGHWQHYSENMFSFEVEKELFALKPMNCPGHCLMFDHRPRSWRELPLRLADFGVLHRNELSGALTGLTRVRRFQQDDAHIFCAMEQIEDEIKGCLDFLRTVYSVFGFSFKLNLSTRPEKFLGDIEVWDQAEKQLENSLNEFGEKWELNSGDGAFYGPKIDIQIKDAIGRYHQCATIQLDFQLPIRFNLTYVSHDGDDKKRPVIVHRAILGSVERMIAILTENYGGKWPFWLSPRQVMVVPVGPTCDEYAQKVRQQFHDAKFMADIDLDPGCTLNKKIRNAQLAQYNFILVVGEKEKISGTVNIRTRDNKVHGERTISETIERLQQLKEFRSKQAEEEF
modifications: N-terminal His6 tag
secretion of VEGF [6]: did not induce secretion of VEGF; also recorded: does not induce VEGF secretion | co-precipitation of VHL [7]: the VHL protein is co-precipitated
